According to patent US11634381B2, “RUNX2 transcription factor inhibitors and uses thereof” (University of Maryland, Baltimore, priority 2015, dated 2023):

What was measured:
[1] = test system: MCF7-tet-off or MDA-231 cells; experiment: Calcein-AM viability assay; type: cell-based, human; conditions: over 24 hrs
Description: In FIGS. 9A-9C compound 1 was added at the initial day of cell plating. Tumorspheres of MCF7-tet-off (−Doxy) cells were photographed for 18 days at ×40 and ×100 magnifications (FIG. 9A), and counted at the final day at ×40 magnification (FIG. 9C). Tumorspheres of MDA-231, MDA-468 and MCF7 cells at day 7 are shown (FIG. 9B). Spheres of MDA-231 and MCF7 cells were counted at day 18 with ×20 magnification. Spheres of vehicle-treated MDA-468 cells were counted at day 7 with ×20 magnification as they became fragile and disrupted 7 days after incubation. In FIG. 9C sphere number (No.) was counted from 9 fields per well. Data presented as mean±SD. Experiments were done in triplicate and repeated three times. *, P<0.05 compared to +Doxy; ^#, P<0.05 compared to −Doxy with vehicle treatment. Box, RUNX2 induction upon Doxy removal from MCF7-tet-off cells (−D). In FIG. 9D to ensure robust sphere formation, compound 1 was added 4 days after cell plating (D4+), and cells were further incubated for 5 days (D5) or for 7 days (D7). In FIG. 9E the cellular invasive ability of MCF7-tet-off cells (left) was evaluated by the 96 Well BME Cell Invasion Assay and xCELLigence systems in vitro, respectively. In parallel, similar amount of cells were plated in separate plates and treated with compound 1 for 24 hrs, and Calcein-AM assay was performed (right). […]

[2] = test system: RUNX2 transcriptional activity; experiment: Luciferase-promoter reporter assay of RUNX2 target genes; type: cell-based, human
Description: (§1) Cells were plated in 96-well plates (30,000 cells/well) and incubated overnight. Cells were co-transfected with indicated luciferase-reporter plasmids (25 ng/well) and pSV-Renilla-Luc (Promega) (15 ng/well) for 6 hrs and compound 1 ([…]) was further treated for 18-48 hrs. COX-2 (P2-274)-Luc (−170bp˜+104bp) and control plasmids (PXP2-Luc) were kindly provided byDr. Miguel A. Iñiguez (Universidad Autónoma de Madrid, Spain), and pNF-kb-Luc was from Dr. Hancai Dan (University of Maryland). Luciferase assay was performed using the Dual-Glo Luciferase Assay Systems as per manufacturer's recommendation (Promega).

[3] = test system: MDA-231, MCF7, MDA-468, BT474 cells; experiment: Combination of compound 1 and CDK inhibitors, cell proliferation and colony assays; type: cell-based, human
[4] = test system: MCF7-tet-off (-Doxy), MDA-231, MDA-468 and MCF7 cells; experiment: Tumorsphere assay; type: cell-based, human; conditions: 50 μM
Description: Single cell suspensions (100,000 cells/well) wereplatedin 6-well ultra-low attachment plates (Corning) with 5 ml of EGM-2 supplemented with bullet kit (Lonza) and 2% FBS. compound 1 (50 μM) was added at the day of the plating or 4 days after plating. Tumorspheres were continuously photographed for 18 days and counted at the final day. Spheres were counted at 9 fields per well and averaged from triplicate.

Lats1/2 = Lats1/2 phosphorylation (Hippo signaling); type: cell-based, human; conditions: compound 1, 24 hours
Description: In FIG. 22A HCC1428 luminal BC cells that express E-Cadherin were treated with recombinant soluble E-Cadherin (rsE-Cad) for 24 hr and total cell extracts were analyzed for phosphorylation of the Lats1/2 tumor suppressors. Phospho.Lats1/2 and total Lats1/2 levels declined with rsE-Cad treatment consistent with TAZ translocation to the nucleus, where it acts as an oncogene with RUNX2. […] MCF7 cells expressing RUNX2 (Tet.OFF) were treated with compound 1 drug for 24 hours and total cell extracts were analyzed for phosphp.Lats1/2, total Lats1/2, and RUNX2 expression.

COX-2 and NF-κb promoter = experiment: Luciferase reporter assay of promoters without Runt binding sequences; type: cell-based, human; conditions: MCF7-RUNX2 and MCF7-Empty cells, 0˜50 mM, 24 hrs
Description: as §1

[5] = test system: MCF10A non-malignant mammary epithelial cells; experiment: Mammosphere formation of non-malignant cells; type: cell-based, human
MCF7 RUNX2 Tet.OFF cells = experiment: Suspension culture tumorsphere formation; type: cell-based, human; conditions: for tumorsphere diameter: 50 μM compound 1, 12 days
Description: MCF7 Tet.OFF cells were grown in the presence (+Dox, RUNX2 negative) or absence (−Dox, RUNX2 positive) of doxycycline for 3 days. Cells were then scraped and counted. 60,000 cells were plated in each well of a 6-well ultra-low attachment plate (Corning; 3471) in Promocell Basal Medium (Promocell; c-22211) complete with Supplement Mix (Promocell; c-39216). Cells were then treated with or without 2 ng/mL TGFβ (R&D Systems; 240-B-002). After growth for 10-15 days, wells were photographed and tumorsphere diameters were measured from photographic images (mm). Colony diameters were calculated using the formula: (L+W)/2. Representative photographs were obtained at 4× magnification. […] For TAZ siRNA knockdown experiments, TAZ siRNA was transfected (as below) into MCF7 Tet.OFF cells and 24 hr later cells were scraped and placed into suspension as described above. Small-Interfering RNA (siRNA) pool targeting RUNX1, RUNX2, and non-targeting control were purchased from Dharmacon, and transfected into cells using RNAiMAX Reagent (Invitrogen). Western blot analysis was performed 48 hrs after transfection.

Br-001 tumor = experiment: TNBC-PDX Br-001 model; type: in vivo, nude mice; conditions: 10 mg/kg
Description: For the PDX models, Br-001 tumor fragments derived from a patient with TNBC (University of Maryland, Translational Core Facility) were inoculated subcutaneously in female NOD scid gamma (NSG) mice (P1). After P1 tumors were grown, tumors were excised, fragmented and inoculated to a new group of NSG mice (P2). After P2 tumors were grown, they were excised, fragmented, and inoculated into nude mice (P3). When the size of the tumors reached 200˜250 mm^3, mice were randomized into two groups, and received i.p. injection of vehicle or compound 1 (10 mg/kg) twice a week for 11 days.

SMILES: O=C(O)C1C2C=CC(C2)C1C(=O)Nc1ccc(Cl)c(Cl)c1 (centres unmarked) [compound 1, 3-(N-(3,4-dichlorophenyl)carbamoyl)-5-norbornene-2-carboxylic acid]
- viability [1]: little effect
- MMP13 promoter activity ([2]; BT474 cells that do not express RUNX2, 48 hrs): did not attenuate
- repression of MMP13 promoter-Luc activity ([2]; MCF7-RUNX2 cells): about 50%
- MMP13 promoter activity ([2]; MDA-231 cells that express RUNX2, 48 hrs): decreased significantly
- promoter-Luc activities of control cells ([2]; T47D-Empty and MCF7-Empty): little effect
- promoter-luciferase activities of MMP13, VEGF and OC ([2]; T47D-RUNX2 and MCF7-RUNX2 cells, 48 hrs): dramatic decrease
- RUNX2-repressed p21 promoter activity ([2]; T47D-RUNX2 cells): reactivated
- p6xOSE2-Luc activity ([2]; T47D-RUNX2 cells): slightly but significantly reduced
- MMP13 promoter-Luc activity ([2]; T47D-RUNX2 cells, 2 μM): almost completely blocked
- growth inhibition of BT474 cells [3]: sensitive
- size and number of tumorspheres [4]: dramatically decreased
- phosphorylation of the Lats1/2 tumor suppressors (Lats1/2): increase in phosphorylation
- COX-2 (P2-274)-Luc or pNF-κb-Luc promoter activities (COX-2 and NF-κb promoter): no inhibitory effect
- mammosphere formation [5]: did not have a significant influence
- tumorsphere diameter (MCF7 RUNX2 Tet.OFF cells; RUNX2 negative cells): 6.37±1.78 mm
- fold inhibition of tumorsphere diameter relative to vehicle (MCF7 RUNX2 Tet.OFF cells; RUNX2 positive cells, 50 μM compound 1): ~4 fold
- tumorsphere diameter (MCF7 RUNX2 Tet.OFF cells; RUNX2 positive cells): 4.83±1.87 mm
- Ki-67 expression (Br-001 tumor; i.p.): markedly reduced
- tumor volume (Br-001 tumor; i.p., 11 days): significant decrease
- body weight and general health (Br-001 tumor; nude mice): did not significantly decrease body weight
